pIC50: −log10 of the molar value. Ends that are not written are not given here.

The target of experiment [1] is T1, HLA A*02:01 class I molecules (Homo sapiens, UniProt P04439, D140Y/D185E/D98H/E176V/E277Q/G131W/G231S/I119V/I121R/I166T/I218V/L300P/L318F/N151K/N90K/P208A/P217A/Q86G/Q94H/R138H/R169H/T345S).
T1 construct: endogenous in cells; host or cells: JY (EBV-transformed homozygous B cell line)
Briefly: MHC-peptide binding assay, inhibition of binding of radiolabeled standard peptide. The settings on record: inhibition of binding of radiolabeled HBV core 18–27 analogue […]; purified MHC from JY cells; six concentrations, three or more independent assays; read-out: Measured affinity IC50. The source says:
Quantitative assays to measure the binding of peptides to HLA A*02:01 class I molecules are based on the inhibition of binding of a radiolabeled standard peptide (HBV core 18–27 analogue, […]). MHC molecules were purified by affinity chromatography from the EBV transformed homozygous cell line JY, and assays performed, as described previously. […] Under the conditions used, where [radiolabeled probe] < [MHC] and IC50 ≥ [MHC], the measured IC50 values are reasonable approximations of the true Kd values.

Experiment [2] relates to PBMCs from HLA-A*0201+ volunteers. Briefly: Ex vivo IFN-γ ELISpot assay. The experiment is classed as cell-based, human. The settings on record: individual peptides at 10 µg/ml; 20 h, 37°C. The source says:
We recruited 21 HLA-A*0201 positive volunteers with a history of primary VZV infection, detectable VZV IgG but no previous VZV vaccination or clinical evidence of recent reactivation (Table 1). The median age was 63 years (range 25–77 years). Epitope predictions in the context of HLA-A*0201 were made using the Immune Epitope Database consensus prediction tool with the complete published VZV sequences (Table S1). The top 0.5% of 9- and 10-mers (367 peptides) were synthesized and peptide pools screened by IFN-γ ELISpot using PBMCs from each subject. In 15/21 subjects, the same peptide pool induced positive responses (Figure 1a). […] Tetramer+ cells were detected in 12/21 subjects with frequencies ranging from 0.01% to 1.8% of CD8 T cells (Figure 1d). ILI was thus identified as an immunodominant HLA-A*0201-restricted class I epitope.
Gamma interferon (IFN-γ) enzyme-linked immunospot (ELISpot) assays were performed using 2×10^5 PBMC stimulated with peptide pools (10 µg/ml/peptide). Peptide pools yielding positive responses were deconvoluted, by testing individual peptides at 10 µg/ml. After 20 h of incubation at 37°C, plates were developed, and responses were calculated. Positive wells contained ≥20 spot-forming units (SFU)/10^6 cells and a P value of ≤0.05 using a Student's t test in at least 2 experiments.

Take ILIEGIFFA: the pIC50 (usually −log10 of the IC50, conventionally taken in molar units) in experiment [1] was 9.82.

As to ILIEGIFFV, the pIC50 in experiment [1] was 10.52.

As for ILIEGVFFA, the pIC50 in experiment [1] is 9.80.

For LLIEGIFFI, the pIC50 in experiment [1] was 9.92.

“MILIEGIFFV [10-mer candidate peptide from ribonucleotide reductase subunit 2 (RNR2) of VZV]”: the “IFN-γ production (individual peptides)” value in experiment [2] is “strongly induced IFN-γ production”.

The values are drawn from PMC3968128, “Broadly Reactive Human CD8 T Cells that Recognize an Epitope Conserved between VZV, HSV and EBV” (PLoS Pathogens, 2014).
